In one assay the test system is corneal wound in mice. As to the kind of experiment: Alkali burning of mouse corneas with Silver Nitrate applicators. The assay is classed as in vivo. The settings on record: 1 μg/ml; for wound healing compared to control (Formula 1): 3 times daily for 3 or 7 days; for inflammatory cells (lymphocytes) infiltration into the wound area / neutrophils recruitment to the corneal wound gap / pathological angiogenesis in corneal wound area / corneal re-epithelialization (wounds with full epidermal closure at 7 days post wounding) / pathological corneal swelling: three daily instillations, Formula 1 as control; for inflammatory cells (lymphocytes) infiltration into the wound area / neutrophils recruitment to the corneal wound gap / pathological angiogenesis in corneal wound area / pathological corneal swelling: 3 days; for inflammatory cells (lymphocytes) infiltration into the wound area: FIG. 31; for neutrophils recruitment to the corneal wound gap: FIG. 32; for pathological angiogenesis in corneal wound area: FIG. 33; for corneal re-epithelialization (wounds with full epidermal closure at 7 days post wounding): FIG. 30; for pathological corneal swelling: FIG. 34. The protocol:
Mice were subjected to chemical alkali burn wounding (using Silver Nitrate applicators for 10 seconds). Eyes were treated by three daily ocular instillations of treatments during 7 successive days with DAP-1 1 μg/ml, DIP-1 1 μg/ml and EPIP-2 1 μg/ml or with Formula 1 as control. Percentage of wounds achieved full epidermal closure at 7 days post wounding.
FIG. 31 is a histogram showing that DAP-1 1 μg/ml and DIP-1 1 μg/ml reduce lymphocytes infiltration in corneal wound gap in mice. Mice were subjected to chemical alkali burn wounding (using Silver Nitrate applicators for 10 seconds). Eyes were treated by three daily ocular instillations of treatments during 3 successive days with DAP-1 1 μg/ml, DIP-1 1 μg/ml and EPIP-2 1 μg/ml or with Formula 1 as control. Histological H&E staining of the corneas wounded area was performed and lymphocytes infiltration was arbitrarily assessed.
FIG. 32 is a histogram showing that DAP-1 1 μg/ml and EPIP-2 1 μg/ml decrease neutrophils recruitment to the corneal wound gap in mice. Mice were subjected to chemical alkali burn wounding (using Silver Nitrate applicators for 10 seconds). Eyes were treated by three daily ocular instillations of treatments during 3 successive days with DAP-1 1 μg/ml, DIP-1 1 μg/ml and EPIP-2 1 μg/ml or with Formula 1 as control. Histological sections of […] were stained with specific neutrophil staining kit (according to manufacturer). Neutrophils were counted per fixed field ×200 and represented by arbitrary units.
Mice were subjected to chemical alkali burn wounding (using Silver Nitrate applicators for 10 seconds). Eyes were treated by three daily ocular instillations of treatments during 3 successive days with DAP-1 1 μg/ml, DIP-1 1 μg/ml and EPIP-2 1 μg/ml or with Formula 1 as control. Histological H&E staining of the corneas wounded area has been performed. Blood vessels in entire corneal area were assessed and the results are represented graphically in objective arbitrary units.
FIG. 34 is a histogram showing that DIP-1 1 μg/ml and EPIP-2 1 μg/ml decrease pathological swelling of wounded cornea in mice. Mice were subjected to chemical alkali burn wounding (using Silver Nitrate applicators for 10 seconds). Eyes were treated by three daily ocular instillations of treatments during 3 successive days with DAP-1 1 μg/ml, DIP-1 1 μg/ml and EPIP-2 1 μg/ml or with Formula 1 as control. Histological H&E staining of the corneas wounded area has been performed and corneal swelling was objectively assessed. The results are presented in arbitrary units. […]
In another experiment, Alkali burning of corneas was performed on anaesthetized mice using Silver Nitrate applicators (75% Silver nitrate, 25% Potassium nitrate, Grafco, GFCO Inc.) for 10 seconds. The eyes were irrigated immediately with 5 ml sterile saline. Eyes were treated 3 times daily for 3 or 7 days with DAP-1 1 μg/ml, DIP-1 1 μg/ml and EPIP-2 1 μg/ml or Formula 1 as control.

For assay [1], the system named is ICAM-1 expression on endothelial cells and keratinocytes; macrophages, neutrophiles and T-cells at inflammation site. As to the kind of experiment: Anti-inflammatory effect of MPDY-1 in various in-vitro, ex-vivo and in-vivo models. An excerpt: This example discusses experiments showing the anti-inflammatory effect of MPDY-1.
The subject of assay [2] is rabbit eyes subject to mechanical corneal wounding. As to the kind of experiment: Mechanical corneal wounding in rabbit eyes, corneal erosion area by fluorescein staining. It is filed as in vivo. The protocol: Mechanical Corneal Ulcer Formation: A 6 mm corneal trephine (Grieshaber, Switzerland), preset for 50 micrometer in depth and a miniblade were used under a surgical microscope, to perform a uniform central corneal epithelial erosions, 6 mm in diameter and 50 micrometer in depth.
Rabbits were subjected to mechanical corneal wounding following the protocol discussed above. Eyes were treated by two daily ocular instillations of treatments during 3 successive days. Fluorescein staining was used to measure the corneal erosion area at twelve hours intervals starting 24 hrs post wounding and up to 72 hrs.
In addition to the time to heal parameter which is routinely assessed in wound healing studies, several publications established the importance of a new parameter, 50% reduction in wound size to serve as a robust predictor of complete wound closure. […] Results were therefore analyzed as percentage of eyes with 50% closure or higher at 24 hr post wounding (FIG. 2).
Rabbits were subjected to mechanical corneal wounding as discussed in Example 1. Eyes were treated by two daily ocular instillations of treatments during 3 successive days. Fluorescein staining was used to measure the corneal erosion area at six hours intervals.
Additional experiments were conducted using varying dosages of active agent. Rabbits were subjected to mechanical corneal wounding as described above. Eyes were treated by two daily ocular instillations of treatments during 3 successive days with 0.1 or 0.5 μg/eye/treatment of MPDY-1 alone in HOB-10 (referred to as HO/05/09) or in BSS or in combination with insulin 0.1-0.5 μg/eye/treatment. Rabbits received a total of daily dose from 0.1 μg (1 μg/ml) and up to 2 μg (20 μg/ml). Fluorescein staining was used to measure the corneal erosion area at twelve hours intervals starting 24 hrs post wounding and up to 72 hr.
Rabbits were subjected to mechanical corneal wounding as described above. […]

“Also recorded” adds a separate entry of the source. Ends that are not written are not given here. * marks the point of attachment. Myristoyl = CCCCCCCCCCCCCC(=O)*

On to “H-Met-Arg-Ala-Ala-Glu-Ala-Ala-Ala-Ala-Glu-Pro-Met-OH (H-MRAAEAAAAEPM-OH) [DAP-1]”, for which, in the assay with corneal wound in mice, the “wound healing compared to control (Formula 1)” value is listed as “wound healing enhancement”, the “inflammatory cells (lymphocytes) infiltration into the wound area” value was “excelled in reducing inflammatory cells infiltration into the wound area”, the “neutrophils recruitment to the corneal wound gap” value is “more potent in decreasing specific neutrophils recruitment” and the “pathological angiogenesis in corneal wound area” value (“pathological angiogenesis” below) is given as “reduce angiogenesis in corneal wound gap”. Also, the “corneal re-epithelialization (wounds with full epidermal closure at 7 days post wounding)” value (“corneal re-epithelialization” for short) in the assay with corneal wound in mice is “promote re-epithelialization of corneal wound”.

In the case of “H-Pro-Tyr-Ile-Ala-Leu-Asn-Val-Asp-OH (H-PYIALNVD-OH) [EPIP-2]”, in the assay on corneal wound in mice, the “wound healing compared to control (Formula 1)” value is listed as “wound healing enhancement”, the “neutrophils recruitment to the corneal wound gap” value is listed as “more potent in decreasing specific neutrophils recruitment”, the “pathological angiogenesis” value was “reduce angiogenesis in corneal wound gap” and the pathological corneal swelling entry is recorded as “normalization in pathological corneal swelling”. For the same substance, the “corneal re-epithelialization” value in the assay with corneal wound in mice is reported as “promote re-epithelialization of corneal wound”.

On to “MPDY-1: N-myristoylated peptide defined by SEQ ID NO: 2 (Phe-Ala-Arg-Lys-Gly-Ala-Leu-Arg-Gln), PKC-α inhibitor; tested in BSS (Myristoyl-FARKGALRQ)”, for which, in assay [1], the “ICAM-1 expression on endothelial cells and keratinocytes” value was “attenuate ICAM-1 expression on endothelial cells and keratinocytes”; the “activation of macrophages at inflammation site” value was “attenuate activation of macrophages at inflammation site”; the “macrophages, neutrophiles and T-cells infiltration into inflammation site” value is “inhibit macrophages, neutrophiles and T-cells infiltration into inflammation site”. In addition, the “eyes completely healed without ocular scarring (full closure) at 48 hr post wounding” value in assay [2] (48 hr, MPDY-1 0.1 or 0.5 μg/eye/treatment, two daily instillations, FIG. 11) worked out at 30%. The “time within which all treated eyes reached full closure” value in assay [2] (post wounding, FIG. 11) is at most 72 h. For the same substance, the “closure of ocular injury at 24 h post wounding” value in assay [2] (versus Control (standard of care ocular buffer), two daily instillations, FIG. 9) is recorded as 60%.

With “Myristoyl-Ser-Phe-Asn-Ser-Tyr-Glu-Leu-Gly-Ser-Leu-OH (Myristoyl-SFNSYELGSL-OH; SMILES CCCCCCCCCCCCCC(=O)N[C@@H](CO)C(=O)N[C@@H](Cc1ccccc1)C(=O)N[C@@H](CC(N)=O)C(=O)N[C@@H](CO)C(=O)N[C@@H](Cc1ccc(O)cc1)C(=O)N[C@@H](CCC(=O)O)C(=O)N[C@@H](CC(C)C)C(=O)NCC(=O)N[C@@H](CO)C(=O)N[C@@H](CC(C)C)C(=O)O) [DIP-1]”, in the assay with corneal wound in mice, the “wound healing compared to control (Formula 1)” value is on record as “wound healing enhancement”, the “inflammatory cells (lymphocytes) infiltration into the wound area” value is given as “excelled in reducing inflammatory cells infiltration into the wound area”, the “pathological angiogenesis” value is “reduce angiogenesis in corneal wound gap” and the pathological corneal swelling result was “normalization in pathological corneal swelling”. Also, the “corneal re-epithelialization” value in the assay on corneal wound in mice is “more potent; also recorded: promote re-epithelialization of corneal wound”.

Values taken from patent publication US20150094260A1, “BUFFERED OPHTHALMIC COMPOSITIONS AND METHODS OF USE THEREOF” (ARAVA BIO-TECH LTD., priority 2010, published 2015).
